What was measured:
X7C DAT [1] = molecular target: T1, X7C DAT (Homo sapiens, UniProt Q01959, C135A/C306A/C319M/C342M/C581L/C90A); assay: [3H]MFZ 2-12 binding, membranes
T1 sequence (Q01959 23-620 C90A/C135A/C306A/C319M/C342M/C581L): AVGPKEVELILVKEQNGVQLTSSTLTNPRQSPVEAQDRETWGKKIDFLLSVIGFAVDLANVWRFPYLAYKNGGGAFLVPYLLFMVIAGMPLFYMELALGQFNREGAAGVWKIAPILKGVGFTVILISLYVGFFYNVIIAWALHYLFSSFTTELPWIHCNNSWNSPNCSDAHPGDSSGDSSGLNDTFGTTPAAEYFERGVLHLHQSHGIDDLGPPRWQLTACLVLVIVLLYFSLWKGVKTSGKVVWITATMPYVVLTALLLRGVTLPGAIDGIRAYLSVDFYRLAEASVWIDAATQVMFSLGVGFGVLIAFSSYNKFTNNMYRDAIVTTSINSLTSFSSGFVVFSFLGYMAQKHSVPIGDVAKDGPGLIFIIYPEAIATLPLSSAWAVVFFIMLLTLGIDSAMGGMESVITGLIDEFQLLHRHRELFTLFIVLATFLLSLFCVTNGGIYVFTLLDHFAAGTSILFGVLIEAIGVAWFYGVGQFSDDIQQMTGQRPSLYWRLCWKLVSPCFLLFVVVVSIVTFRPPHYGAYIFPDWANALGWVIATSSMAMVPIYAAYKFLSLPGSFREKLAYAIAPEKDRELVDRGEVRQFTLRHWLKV

WT DAT = conditions: ref Loland et al., 1999, Norregaard et al., 1998; cited from earlier work
[2] = molecular target: T2, all the remaining mutants as well as the background construct X7C (Homo sapiens, UniProt Q01959, C135A/C306A/C319M/C342M/C581L/C90A); assay: Effect of Zn2+ on [3H]tyramine uptake; format: cell-based; conditions: 10 μM Zn^2+, 15 min prior to and during uptake
T2 sequence (Q01959 23-620 C90A/C135A/C306A/C319M/C342M/C581L): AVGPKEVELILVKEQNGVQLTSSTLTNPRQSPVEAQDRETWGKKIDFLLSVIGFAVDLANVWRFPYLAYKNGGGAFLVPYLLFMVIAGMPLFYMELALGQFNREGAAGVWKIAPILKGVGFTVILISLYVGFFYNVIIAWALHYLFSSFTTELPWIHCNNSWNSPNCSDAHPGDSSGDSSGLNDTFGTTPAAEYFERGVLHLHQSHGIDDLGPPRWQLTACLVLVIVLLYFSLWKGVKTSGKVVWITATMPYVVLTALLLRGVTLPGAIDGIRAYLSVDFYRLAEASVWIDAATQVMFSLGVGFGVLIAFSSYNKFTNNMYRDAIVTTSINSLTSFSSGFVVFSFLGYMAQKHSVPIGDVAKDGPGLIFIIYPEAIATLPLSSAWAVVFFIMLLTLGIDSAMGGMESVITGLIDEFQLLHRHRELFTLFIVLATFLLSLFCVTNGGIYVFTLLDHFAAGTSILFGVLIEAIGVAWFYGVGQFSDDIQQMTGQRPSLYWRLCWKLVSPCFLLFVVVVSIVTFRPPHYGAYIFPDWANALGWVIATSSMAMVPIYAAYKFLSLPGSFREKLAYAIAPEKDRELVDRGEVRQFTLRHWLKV

DAT Tyr335 to alanine = conditions: ref Loland et al., 2002; cited from earlier work
X7C DAT [3] = molecular target: T1, X7C DAT
[4] = substrate: NCCc1ccc(O)cc1; assay: cells, lysate or membranes; conditions: other: X7C; pH 7.4; 37.0 °C

**Q.** With COC(=O)[C@H]1[C@@H](c2ccc(Cl)c(Cl)c2)C[C@@H]2CC[C@H]1N2C [MFZ 2-12] as the molecule, how does the “MFZ 2-12 Bmax ± SEM” value (X7C DAT [1]) read?
**A.** The value was 5 ± 2 pmol/mg.

**Q.** And the Kd (X7C DAT [1]; read-out: MFZ 2-12 KD ± SEM)?
**A.** The Kd was 2.2 ± 0.5 nM.

**Q.** For [Cl-].[Cl-].[Zn+2] [Zn^2+, ZnCl2], which “effect of Zn^2+ on dopamine uptake” value (WT DAT) is on record?
**A.** The value was “inhibits”.

**Q.** What about the “effect of Zn^2+ on tyramine uptake” value [2] of the same molecule?
**A.** The value was “inhibited uptake”.

**Q.** What about the “effect of Zn^2+ on low uptake capacity” value (DAT Tyr335 to alanine) of the same molecule?
**A.** Its value is “substantially restored”.

**Q.** With NCCc1ccc(O)cc1 [tyramine] as the molecule, how does the “Vmax for tyramine uptake” value (X7C DAT [3]) read?
**A.** The value was 29 ±8.

B1: X7C DAT (Homo sapiens; C135A/C306A/C319M/C342M/C581L/C90A) (protein)
chain: AVGPKEVELILVKEQNGVQLTSSTLTNPRQSPVEAQDRETWGKKIDFLLSVIGFAVDLANVWRFPYLAYKNGGGAFLVPYLLFMVIAGMPLFYMELALGQFNREGAAGVWKIAPILKGVGFTVILISLYVGFFYNVIIAWALHYLFSSFTTELPWIHCNNSWNSPNCSDAHPGDSSGDSSGLNDTFGTTPAAEYFERGVLHLHQSHGIDDLGPPRWQLTACLVLVIVLLYFSLWKGVKTSGKVVWITATMPYVVLTALLLRGVTLPGAIDGIRAYLSVDFYRLAEASVWIDAATQVMFSLGVGFGVLIAFSSYNKFTNNMYRDAIVTTSINSLTSFSSGFVVFSFLGYMAQKHSVPIGDVAKDGPGLIFIIYPEAIATLPLSSAWAVVFFIMLLTLGIDSAMGGMESVITGLIDEFQLLHRHRELFTLFIVLATFLLSLFCVTNGGIYVFTLLDHFAAGTSILFGVLIEAIGVAWFYGVGQFSDDIQQMTGQRPSLYWRLCWKLVSPCFLLFVVVVSIVTFRPPHYGAYIFPDWANALGWVIATSSMAMVPIYAAYKFLSLPGSFREKLAYAIAPEKDRELVDRGEVRQFTLRHWLKV
**Q.** With B1 as the molecule, how does the Km [4] read?
**A.** Its Km is 2.6 µM.

Source: paper PMC4058377 (Neurochemistry international, 2014)
